Target: T1, human TRPV1 (Homo sapiens, UniProt Q8NER1)
T1 construct: expressed in transfected cells
Assay type: cell-based
Description: Oocytes were held at −60 mV and data normalised to currents elicited by 10 μM capsaicin. (D) Reversibility of DkTx and Y35G evoked rat TRPV1 response at the indicated peptide concentrations using TEVC oocytes. Data points represent the fraction of currents remaining during the washout as a ratio to the maximal current evoked by each sample. (E) Washout shown as fractional current determined by whole‐cell patch clamp recordings from HEK293 cells expressing TRPV1 (voltage‐clamped at −80 mV). […] The time constant for decay was not fitted and calculated in panels D and E, as it could not be accurately determined for data sets with minimal washout over the experimental time course. All data are mean ± standard error of the mean (n=5–7).

T1 sequence (Q8NER1 whole entry): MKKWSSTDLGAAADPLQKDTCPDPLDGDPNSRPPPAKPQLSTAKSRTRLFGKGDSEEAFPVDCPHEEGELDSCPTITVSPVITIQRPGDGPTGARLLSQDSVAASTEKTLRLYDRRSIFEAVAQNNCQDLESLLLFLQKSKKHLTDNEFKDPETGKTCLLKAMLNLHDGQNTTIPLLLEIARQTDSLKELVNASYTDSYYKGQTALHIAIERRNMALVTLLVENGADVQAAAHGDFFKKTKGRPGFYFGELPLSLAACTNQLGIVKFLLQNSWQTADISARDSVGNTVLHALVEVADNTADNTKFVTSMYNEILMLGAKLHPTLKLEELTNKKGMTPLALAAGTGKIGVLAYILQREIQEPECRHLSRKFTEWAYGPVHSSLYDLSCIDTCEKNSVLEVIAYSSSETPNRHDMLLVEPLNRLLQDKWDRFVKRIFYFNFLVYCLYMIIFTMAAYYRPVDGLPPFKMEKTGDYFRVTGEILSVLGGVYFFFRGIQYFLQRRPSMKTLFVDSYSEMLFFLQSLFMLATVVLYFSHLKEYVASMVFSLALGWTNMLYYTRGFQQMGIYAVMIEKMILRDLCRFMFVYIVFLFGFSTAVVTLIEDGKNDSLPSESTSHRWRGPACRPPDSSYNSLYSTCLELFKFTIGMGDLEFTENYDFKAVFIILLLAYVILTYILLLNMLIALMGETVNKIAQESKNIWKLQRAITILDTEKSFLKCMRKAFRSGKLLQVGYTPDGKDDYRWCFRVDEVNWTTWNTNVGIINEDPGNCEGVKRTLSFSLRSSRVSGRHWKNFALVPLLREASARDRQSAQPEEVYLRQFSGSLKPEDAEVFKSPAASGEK

For COc1cc(CNC(=O)CCCC/C=C/C(C)C)ccc1O [capsaicin], the “reversibility of TRPV1 current upon washing” value was “rapidly reversible upon washing”.
With N.N.N.N.N.N.N.N.N.N.N.N.N.N.[Cl-].[Cl-].[Cl-].[Cl-].[Cl-].[Cl-].[O-2].[O-2].[Ru+3].[Ru+3].[Ru+4] [ruthenium red] the “inhibition of iDkTx-evoked currents” value (10 μM ruthenium red against 2 μM iDkTx, +80 mV, HEK293, Figure 1E–F) was “fully inhibited”.

From paper PMC10952689 (Angewandte Chemie (International Ed. in English), 2023)
